Experimental data published in article PMC5218480 (PLoS ONE, 2017).

Test system: MV-4-11 cells
Assay: Gene expression microarray analysis (Affymetrix PrimeView) and GSEA
Type: cell-based, human
Set-up: RFU PODN (11730768_x_at) / Fold change /veh PODN (11730768_x_at) / RFU LINC00158 (11744669_a_at) / Fold change /veh LINC00158 (11744669_a_at) / RFU DUSP10 (11751237_a_at) / Fold change /veh DUSP10 (11751237_a_at) / RFU ID3 (11757404_x_at) / Fold change /veh ID3 (11757404_x_at) / RFU PLEKHG5 (11737974_s_at) / Fold change /veh PLEKHG5 (11737974_s_at) / RFU LRRC4B (11730491_at) / Fold change /veh LRRC4B (11730491_at) / RFU GIMAP4 (11747438_a_at) / Fold change /veh GIMAP4 (11747438_a_at) / RFU KRT8 (11758183_x_at) / Fold change /veh KRT8 (11758183_x_at) / RFU CNN1 (11734310_a_at) / Fold change /veh CNN1 (11734310_a_at) / RFU VPS37D (11726825_at) / Fold change /veh VPS37D (11726825_at) / RFU C10orf10 (11716522_x_at) / Fold change /veh C10orf10 (11716522_x_at) / RFU KIR2DL2 /// KIR2DL4 /// KIR2DL5A /// KIR2DL5B /// KIR2DS1 /// KIR2DS2 /// KIR2DS3 /// KIR2DS4 /// KIR3DL3 /// KIR3DL3 /// KIR3DS1 (11738374_at) / Fold change /veh KIR2DL2 /// KIR2DL4 /// KIR2DL5A /// KIR2DL5B /// KIR2DS1 /// KIR2DS2 /// KIR2DS3 /// KIR2DS4 /// KIR3DL3 /// KIR3DL3 /// KIR3DS1 (11738374_at) / RFU C1QL1 (11718748_at) / Fold change /veh C1QL1 (11718748_at) / RFU TMPRSS4 (11747572_a_at) / Fold change /veh TMPRSS4 (11747572_a_at) / RFU HAMP (11756126_x_at) / Fold change /veh HAMP (11756126_x_at) / RFU RNFT2 (11725882_a_at) / Fold change /veh RNFT2 (11725882_a_at) / RFU NR4A2 (11747474_a_at) / Fold change /veh NR4A2 (11747474_a_at) / RFU ABCC12 (11746883_a_at) / Fold change /veh ABCC12 (11746883_a_at) / RFU TMEM136 (11760407_x_at) / Fold change /veh TMEM136 (11760407_x_at) / RFU CLDN22 /// WWC2 (11732394_at) / Fold change /veh CLDN22 /// WWC2 (11732394_at) / RFU HLA-DPB1 (11760878_x_at) / Fold change /veh HLA-DPB1 (11760878_x_at) / RFU SPINT1 (11716480_a_at) / Fold change /veh SPINT1 (11716480_a_at) / RFU GAP43 (11754022_s_at) / Fold change /veh GAP43 (11754022_s_at) / RFU A4GNT (11735810_at) / Fold change /veh A4GNT (11735810_at) / RFU PRB3 (11715151_x_at) / Fold change /veh PRB3 (11715151_x_at) / RFU TUBB4B (11761932_at) / Fold change /veh TUBB4B (11761932_at) / RFU CAPN14 (11732068_a_at) / Fold change /veh CAPN14 (11732068_a_at) / RFU TMCC2 (11721928_a_at) / Fold change /veh TMCC2 (11721928_a_at) / RFU IRGQ (11745062_a_at) / Fold change /veh IRGQ (11745062_a_at) / RFU FAM174B (11720279_a_at) / Fold change /veh FAM174B (11720279_a_at) / RFU TMPRSS4 (11748680_a_at) / Fold change /veh TMPRSS4 (11748680_a_at) / RFU FAM212B (11763350_a_at) / Fold change /veh FAM212B (11763350_a_at) / RFU PLEKHG5 (11743358_a_at) / Fold change /veh PLEKHG5 (11743358_a_at) / RFU ZSCAN30 (11745921_a_at) / Fold change /veh ZSCAN30 (11745921_a_at) / RFU CMKLR1 (11741424_a_at) / Fold change /veh CMKLR1 (11741424_a_at) / RFU LOC101060620 /// MAPK8IP1 (11723275_at) / Fold change /veh LOC101060620 /// MAPK8IP1 (11723275_at) / RFU SPTSSB (11747773_x_at) / Fold change /veh SPTSSB (11747773_x_at) / RFU PRSS12 (11739890_at) / Fold change /veh PRSS12 (11739890_at) / RFU BIN1 (11741810_x_at) / Fold change /veh BIN1 (11741810_x_at) / RFU WNT11 (11732464_a_at) / Fold change /veh WNT11 (11732464_a_at) / RFU C10orf10 (11716521_a_at) / Fold change /veh C10orf10 (11716521_a_at) / RFU C5orf56 (11738089_at) / Fold change /veh C5orf56 (11738089_at) / RFU CYB561 (11721691_x_at) / Fold change /veh CYB561 (11721691_x_at) / RFU ANKRD19P (11752326_a_at) / Fold change /veh ANKRD19P (11752326_a_at) / RFU OR2T12 /// OR2T33 /// OR2T8 (11738714_s_at) / Fold change /veh OR2T12 /// OR2T33 /// OR2T8 (11738714_s_at) / RFU VCAN (11748164_a_at) / Fold change /veh VCAN (11748164_a_at) / RFU JSRP1 (11732532_at) / Fold change /veh JSRP1 (11732532_at) / RFU KRTAP10-11 (11738290_x_at) / Fold change /veh KRTAP10-11 (11738290_x_at) / RFU MYO3A (11730013_a_at) / Fold change /veh MYO3A (11730013_a_at) / RFU EBF3 (11725865_a_at) / Fold change /veh EBF3 (11725865_a_at) / RFU CAMK2N1 (11719241_x_at) / Fold change /veh CAMK2N1 (11719241_x_at) / RFU C5orf56 (11738088_a_at) / Fold change /veh C5orf56 (11738088_a_at) / RFU OLFML3 (11715873_a_at) / Fold change /veh OLFML3 (11715873_a_at) / RFU LOC100653217 /// NTM (11731650_a_at) / Fold change /veh LOC100653217 /// NTM (11731650_a_at) / RFU MAPK11 (11762145_a_at) / Fold change /veh MAPK11 (11762145_a_at) / RFU FIZ1 (11724087_x_at) / Fold change /veh FIZ1 (11724087_x_at) / RFU OASL (11726364_x_at) / Fold change /veh OASL (11726364_x_at) / RFU SOX15 (11748057_x_at) / Fold change /veh SOX15 (11748057_x_at) / RFU CD79A (11719716_a_at) / Fold change /veh CD79A (11719716_a_at) / RFU HIST1H1D (11736915_at) / Fold change /veh HIST1H1D (11736915_at) / RFU CASKIN2 (11723855_a_at) / Fold change /veh CASKIN2 (11723855_a_at) / RFU LOC730098 (11760151_x_at) / Fold change /veh LOC730098 (11760151_x_at) / RFU OR4N2 (11742367_at) / Fold change /veh OR4N2 (11742367_at) / RFU PRRT2 (11749266_a_at) / Fold change /veh PRRT2 (11749266_a_at) / RFU SNX32 (11753110_a_at) / Fold change /veh SNX32 (11753110_a_at) / RFU CDHR5 (11726645_a_at) / Fold change /veh CDHR5 (11726645_a_at) / RFU RCAN1 (11760418_a_at) / Fold change /veh RCAN1 (11760418_a_at) / RFU FAM167A (11723789_a_at) / Fold change /veh FAM167A (11723789_a_at) / RFU FAM26E (11764081_at) / Fold change /veh FAM26E (11764081_at) / RFU ISYNA1 (11749810_s_at) / Fold change /veh ISYNA1 (11749810_s_at) / RFU ACY1 (11761880_at) / Fold change /veh ACY1 (11761880_at) / RFU 11764098_at / Fold change /veh 11764098_at / RFU SAMD14 (11745864_x_at) / Fold change /veh SAMD14 (11745864_x_at) / RFU NPB (11741838_a_at) / Fold change /veh NPB (11741838_a_at) / RFU TMPRSS6 (11731388_a_at) / Fold change /veh TMPRSS6 (11731388_a_at) / RFU KRTAP10-2 (11738614_at) / Fold change /veh KRTAP10-2 (11738614_at) / RFU ARHGAP8 /// PRR5-ARHGAP8 (11727945_x_at) / Fold change /veh ARHGAP8 /// PRR5-ARHGAP8 (11727945_x_at) / RFU KRTAP5-7 /// NADSYN1 (11734609_at) / Fold change /veh KRTAP5-7 /// NADSYN1 (11734609_at) / RFU RASL12 (11751679_a_at) / Fold change /veh RASL12 (11751679_a_at) / RFU CDKN2B (11736163_a_at) / Fold change /veh CDKN2B (11736163_a_at) / RFU PRF1 (11729649_at) / Fold change /veh PRF1 (11729649_at) / RFU, ZNF638 /// ZNF638-IT1 / Fold change vs veh, ZNF638 /// ZNF638-IT1 / RFU, PANK3 / Fold change vs veh, PANK3 / RFU, SH3YL1 / Fold change vs veh, SH3YL1 / RFU, ZEB2 / Fold change vs veh, ZEB2 / RFU, NRIP1 / Fold change vs veh, NRIP1 / RFU, PTTG1IP / Fold change vs veh, PTTG1IP / RFU, CAPN2 / Fold change vs veh, CAPN2 / RFU, MED14 / Fold change vs veh, MED14 / RFU, SNORA58 / Fold change vs veh, SNORA58 / RFU, C1orf63 / Fold change vs veh, C1orf63 / RFU, LRRFIP1 / Fold change vs veh, LRRFIP1 / RFU, NDUFAF7 / Fold change vs veh, NDUFAF7 / RFU, SLC12A2 / Fold change vs veh, SLC12A2 / RFU, IBTK / Fold change vs veh, IBTK / RFU, ESF1 / Fold change vs veh, ESF1 / Fold change vs veh, TMEM50B / RFU, TAOK1 / Fold change vs veh, TAOK1 / RFU, ACBD3 / Fold change vs veh, ACBD3 / RFU, TMA16 / Fold change vs veh, TMA16 / RFU, RWDD3 / Fold change vs veh, RWDD3 / RFU, BCAT1 / Fold change vs veh, BCAT1 / RFU, EDEM3 / Fold change vs veh, EDEM3 / RFU, TMEM33 / Fold change vs veh, TMEM33 / RFU, WDR75 / Fold change vs veh, WDR75 / RFU, AHCTF1 / Fold change vs veh, AHCTF1 / RFU, TFRC / Fold change vs veh, TFRC / RFU, ZDHHC17 / Fold change vs veh, ZDHHC17 / RFU, NOM1 / Fold change vs veh, NOM1 / RFU, ARL8B / Fold change vs veh, ARL8B / RFU, ZBTB11 / Fold change vs veh, ZBTB11 / RFU, TAMM41 / Fold change vs veh, TAMM41 / RFU, KIAA1704 /// LOC100996395 / Fold change vs veh, KIAA1704 /// LOC100996395 / RFU, ING1 / Fold change vs veh, ING1 / RFU, TRMT61B / Fold change vs veh, TRMT61B / RFU, FUBP3 / Fold change vs veh, FUBP3 / RFU, TP53 / Fold change vs veh, TP53 / RFU, TNKS2 / Fold change vs veh, TNKS2 / RFU, ZFP14 / Fold change vs veh, ZFP14 / RFU, ACTR2 / Fold change vs veh, ACTR2 / RFU, PPP3R1 / Fold change vs veh, PPP3R1 / RFU, PIK3R1 / Fold change vs veh, PIK3R1 / RFU, HNRNPA1 / Fold change vs veh, HNRNPA1 / RFU, RNF170 / Fold change vs veh, RNF170 / RFU, ZNF28 / Fold change vs veh, ZNF28 / RFU, RNGTT / Fold change vs veh, RNGTT / RFU, OGT / Fold change vs veh, OGT / RFU, BRD1 / Fold change vs veh, BRD1 / RFU, MARS / Fold change vs veh, MARS / RFU, ZNF655 / Fold change vs veh, ZNF655 / RFU, FAHD1 / Fold change vs veh, FAHD1 / RFU, BDP1 / Fold change vs veh, BDP1 / RFU, LRRCC1 / Fold change vs veh, LRRCC1 / RFU, ARID1A / Fold change vs veh, ARID1A / RFU, ZNF146 / Fold change vs veh, ZNF146 / RFU, ZNF330 / Fold change vs veh, ZNF330 / RFU, GPN3 / Fold change vs veh, GPN3 / RFU, C9orf123 / Fold change vs veh, C9orf123 / RFU, N4BP2L2 / Fold change vs veh, N4BP2L2 / RFU, ARFIP1 / Fold change vs veh, ARFIP1 / RFU, FAM179B / Fold change vs veh, FAM179B / RFU, BCL10 / Fold change vs veh, BCL10 / RFU, UHRF1BP1L / Fold change vs veh, UHRF1BP1L / RFU, BET1 / Fold change vs veh, BET1 / RFU, CNOT2 / Fold change vs veh, CNOT2 / RFU, ZNF268 / Fold change vs veh, ZNF268 / Fold change vs veh, ZNF507 / RFU, DGCR2 / Fold change vs veh, DGCR2 / RFU, WDSUB1 / Fold change vs veh, WDSUB1 / Fold change vs veh, HSP90B1 /// MIR3652 / RFU, ADSS / Fold change vs veh, ADSS / RFU, GK / Fold change vs veh, GK / RFU, ZNF148 / Fold change vs veh, ZNF148 / RFU, TAF9 / Fold change vs veh, TAF9 / RFU, SLC1A5 / Fold change vs veh, SLC1A5 / RFU, SLMO2 / Fold change vs veh, SLMO2 / RFU, ABCC4 / Fold change vs veh, ABCC4 / RFU, LOC101060439 /// RAP1B / Fold change vs veh, LOC101060439 /// RAP1B / RFU, RFX7 / Fold change vs veh, RFX7 / RFU, GTPBP10 / Fold change vs veh, GTPBP10 / RFU, CNEP1R1 / Fold change vs veh, CNEP1R1 / RFU, BIVM-ERCC5 /// ERCC5 / Fold change vs veh, BIVM-ERCC5 /// ERCC5 / RFU, ILF3 / Fold change vs veh, ILF3 / RFU 11762660_at / Fold change /veh 11762660_at / RFU VCAN (11757783_s_at) / Fold change /veh VCAN (11757783_s_at) / RFU DDX43 (11728927_at) / Fold change /veh DDX43 (11728927_at) / RFU KRT8 (11758188_x_at) / Fold change /veh KRT8 (11758188_x_at) / RFU NKD1 (11759106_at) / Fold change /veh NKD1 (11759106_at) / RFU SRD5A1 (11742802_a_at) / Fold change /veh SRD5A1 (11742802_a_at) / RFU TPSAB1 /// TPSB2 (11721975_s_at) / Fold change /veh TPSAB1 /// TPSB2 (11721975_s_at) / RFU GSTM3 (11746129_a_at) / Fold change /veh GSTM3 (11746129_a_at) / RFU IL23R (11737362_x_at) / Fold change /veh IL23R (11737362_x_at) / RFU TMEM51 (11727254_a_at) / Fold change /veh TMEM51 (11727254_a_at) / RFU PIWIL2 (11732686_x_at) / Fold change /veh PIWIL2 (11732686_x_at) / RFU ORM1 (11744905_x_at) / Fold change /veh ORM1 (11744905_x_at) / RFU CCDC152 (11743942_at) / Fold change /veh CCDC152 (11743942_at) / RFU ECM1 (11717891_a_at) / Fold change /veh ECM1 (11717891_a_at) / RFU IL23R (11748794_a_at) / Fold change /veh IL23R (11748794_a_at) / RFU TNFAIP8L3 (11732012_x_at) / Fold change /veh TNFAIP8L3 (11732012_x_at) / RFU MBOAT4 (11741988_at) / Fold change /veh MBOAT4 (11741988_at) / RFU 11764193_at / Fold change /veh 11764193_at / RFU TMEM53 (11763286_at) / Fold change /veh TMEM53 (11763286_at) / RFU MAGEB2 (11727129_at) / Fold change /veh MAGEB2 (11727129_at) / RFU TMEM200A (11744735_a_at) / Fold change /veh TMEM200A (11744735_a_at) / RFU CCDC152 (11751479_a_at) / Fold change /veh CCDC152 (11751479_a_at) / RFU FAM211A (11726209_a_at) / Fold change /veh FAM211A (11726209_a_at) / RFU RGS16 (11746705_a_at) / Fold change /veh RGS16 (11746705_a_at) / RFU VCAN (11755009_s_at) / Fold change /veh VCAN (11755009_s_at) / RFU RHOB (11743442_s_at) / Fold change /veh RHOB (11743442_s_at) / RFU RGS16 (11720943_a_at) / Fold change /veh RGS16 (11720943_a_at) / RFU RGS16 (11720944_at) / Fold change /veh RGS16 (11720944_at) / RFU, VPS4B / Fold change vs veh, VPS4B / RFU, CREB1 / Fold change vs veh, CREB1 / RFU, DNAJC13 / Fold change vs veh, DNAJC13 / RFU, GNAQ / Fold change vs veh, GNAQ / RFU, CDK5R1 / Fold change vs veh, CDK5R1 / RFU, ZRANB3 / Fold change vs veh, ZRANB3 / RFU, CUL4A / Fold change vs veh, CUL4A / RFU, CCNY / Fold change vs veh, CCNY / RFU, UFL1 / Fold change vs veh, UFL1 / RFU, COG3 / Fold change vs veh, COG3 / RFU, DIAPH2 / Fold change vs veh, DIAPH2 / RFU, SKA2 / Fold change vs veh, SKA2 / RFU, AFF3 / Fold change vs veh, AFF3 / RFU, LMF1 / Fold change vs veh, LMF1 / RFU, IPO11 / Fold change vs veh, IPO11 / RFU, DFFB / Fold change vs veh, DFFB / RFU, FOXP1 / Fold change vs veh, FOXP1 / RFU, CARD8 / Fold change vs veh, CARD8 / RFU, STRN3 / Fold change vs veh, STRN3 / RFU, ADK / Fold change vs veh, ADK / RFU, RASSF2 / Fold change vs veh, RASSF2 / RFU, WIPF1 / Fold change vs veh, WIPF1 / RFU, LARP1B / Fold change vs veh, LARP1B / RFU, RASA1 / Fold change vs veh, RASA1 / RFU, RB1 / Fold change vs veh, RB1 / RFU, PPFIA1 / Fold change vs veh, PPFIA1 / RFU, MAT2A / Fold change vs veh, MAT2A / RFU, CCT5 / Fold change vs veh, CCT5 / RFU, WDR92 / Fold change vs veh, WDR92 / RFU, CUX1 / Fold change vs veh, CUX1 / RFU, TTC7A / Fold change vs veh, TTC7A / RFU, TMEM135 / Fold change vs veh, TMEM135 / RFU, DEPTOR / Fold change vs veh, DEPTOR / RFU, CPM / Fold change vs veh, CPM / RFU, DNAJB6 / Fold change vs veh, DNAJB6 / RFU, CACNA2D3 / Fold change vs veh, CACNA2D3 / RFU, DTX4 / Fold change vs veh, DTX4 / RFU, TFCP2 / Fold change vs veh, TFCP2 / RFU, GMCL1 /// GMCL1P1 / Fold change vs veh, GMCL1 /// GMCL1P1 / RFU, AEBP2 / Fold change vs veh, AEBP2 / RFU, SNHG1 /// SNORD22 /// SNORD25 /// SNORD26 /// SNORD27 /// SNORD28 /// SNORD29 /// SNORD31 / Fold change vs veh, SNHG1 /// SNORD22 /// SNORD25 /// SNORD26 /// SNORD27 /// SNORD28 /// SNORD29 /// SNORD31 / Fold change (Aza/veh), C12orf56 (ProbeSet 11735607_a_at) / Fold change (ACY-1035/veh), C12orf56 (ProbeSet 11735607_a_at) / Fold change (Aza/veh), FGFR1OP (ProbeSet 11751329_s_at) / Fold change (ACY-1035/veh), FGFR1OP (ProbeSet 11751329_s_at) / Fold change (Aza/veh), VPS36 (ProbeSet 11739960_a_at) / Fold change (ACY-1035/veh), VPS36 (ProbeSet 11739960_a_at) / RFU SYPL1 (11715823_x_at) / Fold change /veh SYPL1 (11715823_x_at) / RFU IGFBP7 (11715501_s_at) / Fold change /veh IGFBP7 (11715501_s_at) / RFU REEP3 (11722064_at) / Fold change /veh REEP3 (11722064_at) / RFU IGLL1 (11728026_x_at) / Fold change /veh IGLL1 (11728026_x_at): dose or concentration left out as unconfirmed
Settings: ProbeSet 11731461_x_at; LIST D

For `Nc1ccc(-c2cccs2)cc1NC(=O)c1ccc2c(c1)cc(C1CC1)n2CCN1CCOCC1` [ACY-1035], the “RFU, CPM” value was 131.54 RFU.
